Test results: article PMC10850145, “Hormonal steroids induce multidrug resistance and stress response genes in Neisseria gonorrhoeae by binding to MtrR” (Nature Communications, 2024)
Several values for one entry are separate records, joined by “and”; a condition that tells them apart may be missing. Identical values can stand only once. Entries after “also recorded” stand apart in the source; their conditions may differ. Like-named read-outs stand apart in the source and are kept apart here.

Legend:
FA19-rpoH-lacZ = test: Gonococcal growth in liquid culture (GC broth) with hormones (Fig S7)
MtrR = biological target: T1, MtrR (Neisseria gonorrhoeae, UniProt P39897); test: Isothermal titration calorimetry, ligand binding to MtrR WT; settings: equilibrium dissociation constant (Kd), MtrR WT, ITC, 25 °C, 1% MeOH
T1 construct: Hexa-histidine tag with TEV protease cleavage site (N, cleaved yes); made in house; host or cells: E. coli Rosetta Gami B(DE3) pLysS
T1 sequence (P39897 whole entry): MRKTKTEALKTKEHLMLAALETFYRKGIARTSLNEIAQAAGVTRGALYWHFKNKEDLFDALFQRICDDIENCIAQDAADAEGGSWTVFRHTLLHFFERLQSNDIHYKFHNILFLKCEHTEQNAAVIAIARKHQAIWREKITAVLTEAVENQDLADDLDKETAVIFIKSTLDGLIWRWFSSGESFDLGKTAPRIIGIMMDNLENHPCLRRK

N. gonorrhoeae = system: N. gonorrhoeae; set-up: method as in PMID 816438; settings: listed as PTR; cited from earlier work
rpoH-lacZ expression = type: cell-based, Neisseria gonorrhoeae; settings: for Miller units, single well: individual replicate; for Miller units, Mean: mean of 4 wells; for Miller units / β-galactosidase activity (Miller units): rpoH-lacZ, single replicate
MtrR D171A = biological target: T2, MtrR D171A (Neisseria gonorrhoeae, UniProt P39897, D171A); test: biochemical; type: binding
T2 construct: Hexa-histidine tag with TEV protease cleavage site (N, cleaved yes); made in house; host or cells: E. coli Rosetta Gami B(DE3) pLysS
T2 sequence (P39897 whole entry D171A): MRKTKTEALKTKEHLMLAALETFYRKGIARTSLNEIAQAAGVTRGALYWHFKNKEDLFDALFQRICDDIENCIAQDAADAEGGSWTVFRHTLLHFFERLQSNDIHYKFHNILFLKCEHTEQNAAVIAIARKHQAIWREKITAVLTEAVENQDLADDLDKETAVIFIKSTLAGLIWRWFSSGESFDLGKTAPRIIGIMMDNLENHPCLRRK

[1] = 6.25 µM hormone, plate columns 1-6 (WT)
[2] = 6.25 µM hormone, plate columns 7-12 (second strain, not WT)
[3] = 12.5 µM hormone, plate columns 1-6 (WT)
[4] = 12.5 µM hormone, plate columns 7-12 (second strain, not WT)
[5] = 25 µM hormone, plate columns 1-6 (WT)
[6] = 25 µM hormone, plate columns 7-12 (second strain, not WT)
[7] = 50 µM hormone, plate columns 1-6 (WT)
[8] = 50 µM hormone, plate columns 7-12 (second strain, not WT)
[9] = ΔmtrR + mtrR D171A in trans, 6.25 µM hormone
[10] = ΔmtrR + mtrR D171A in trans, 12.5 µM hormone
[11] = ΔmtrR + mtrR D171A in trans, 25 µM hormone
[12] = ΔmtrR + mtrR D171A in trans, 50 µM hormone

## CC(=O)[C@H]1CC[C@H]2[C@@H]3CCC4=CC(=O)CC[C@]4(C)[C@H]3CC[C@]12C [Progesterone, progesterone]
FA19-rpoH-lacZ; 5.95 hr, 25 µM
  growth curve reading, raw replicates: 0.130 and 0.126
FA19-rpoH-lacZ; 5.95 hr, 50 µM
  growth curve reading after BLANKING: 0.070
  growth curve reading, raw replicates: 0.103 and 0.104
FA19-rpoH-lacZ; 6.82 hr, 0.1 µM
  growth curve reading after BLANKING: 0.100
  growth curve reading, raw replicates: 0.130
FA19-rpoH-lacZ; 6.82 hr, 1 µM
  growth curve reading after BLANKING: 0.112
FA19-rpoH-lacZ; 6.82 hr, 10 µM
  growth curve reading after BLANKING: 0.091
  growth curve reading, raw replicates: 0.126 and 0.123
FA19-rpoH-lacZ; 6.82 hr, 25 µM
  growth curve reading after BLANKING: 0.109
FA19-rpoH-lacZ; 6.82 hr, 50 µM
  growth curve reading after BLANKING: 0.083
  growth curve reading, raw replicates: 0.114 and 0.119
MtrR
  Kd: 2.75 ± 0.7 µM
N. gonorrhoeae
  growth inhibition of N. gonorrhoeae: arrest N. gonorrhoeae growth; also recorded: most effective in growth inhibition
rpoH-lacZ expression; [1]
  Miller units, single well: 42 Miller units and 34 Miller units and 33 Miller units
  Miller units, Mean: 35 Miller units
rpoH-lacZ expression; [2]
  Miller units, single well: 87 Miller units and 84 Miller units and 94 Miller units and 85 Miller units
  Miller units, Mean: 87 Miller units
rpoH-lacZ expression; [3]
  Miller units, single well: 35 Miller units and 36 Miller units and 31 Miller units and 38 Miller units
  Miller units, Mean: 35 Miller units
rpoH-lacZ expression; [4]
  Miller units, single well: 87 Miller units and 78 Miller units and 71 Miller units and 77 Miller units
  Miller units, Mean: 78 Miller units
rpoH-lacZ expression; [5]
  Miller units, single well: 60 Miller units and 61 Miller units and 39 Miller units and 59 Miller units
  Miller units, Mean: 55 Miller units
rpoH-lacZ expression; [6]
  Miller units, single well: 95 Miller units and 81 Miller units and 89 Miller units and 80 Miller units
  Miller units, Mean: 86 Miller units
rpoH-lacZ expression; [7]
  Miller units, single well: 66 Miller units and 65 Miller units and 44 Miller units
  Miller units, Mean: 60 Miller units
rpoH-lacZ expression; [8]
  Miller units, single well: 64 Miller units and 60 Miller units and 72 Miller units and 71 Miller units
  Miller units, Mean: 67 Miller units
rpoH-lacZ expression; complemented (MtrR+) strains, increasing hormone
  induction of rpoH expression: could be induced
rpoH-lacZ expression; loss of MtrR or MtrR-D171A strain
  induction of rpoH expression: abrogated
rpoH-lacZ expression; [9]
  Miller units: 94 Miller units
  β-galactosidase activity (Miller units): 87 Miller units and 84 Miller units and 85 Miller units
rpoH-lacZ expression; [10]
  Miller units: 71 Miller units
  β-galactosidase activity (Miller units): 87 Miller units and 78 Miller units and 77 Miller units
rpoH-lacZ expression; [11]
  Miller units: 89 Miller units
  β-galactosidase activity (Miller units): 95 Miller units and 81 Miller units and 80 Miller units
rpoH-lacZ expression; [12]
  Miller units: 72 Miller units
  β-galactosidase activity (Miller units): 64 Miller units and 60 Miller units and 71 Miller units
rpoH-lacZ expression; ΔmtrR + mtrR WT in trans, 6.25 µM hormone
  β-galactosidase activity (Miller units): 42 Miller units and 34 Miller units and 33 Miller units
rpoH-lacZ expression; ΔmtrR + mtrR WT in trans, 12.5 µM hormone
  β-galactosidase activity (Miller units): 35 Miller units and 36 Miller units and 31 Miller units and 38 Miller units
rpoH-lacZ expression; ΔmtrR + mtrR WT in trans, 25 µM hormone
  β-galactosidase activity (Miller units): 60 Miller units and 61 Miller units and 39 Miller units and 59 Miller units
rpoH-lacZ expression; ΔmtrR + mtrR WT in trans, 50 µM hormone
  β-galactosidase activity (Miller units): 66 Miller units and 65 Miller units and 44 Miller units
rpoH-lacZ expression; ΔmtrR strain, 6.25 µM hormone
  β-galactosidase activity (Miller units): 315 Miller units and 172 Miller units and 146 Miller units
rpoH-lacZ expression; ΔmtrR strain, 12.5 µM hormone
  β-galactosidase activity (Miller units): 228 Miller units and 142 Miller units and 163 Miller units
rpoH-lacZ expression; ΔmtrR strain, 25 µM hormone
  β-galactosidase activity (Miller units): 253 Miller units and 160 Miller units and 118 Miller units
rpoH-lacZ expression; ΔmtrR strain, 50 µM hormone
  β-galactosidase activity (Miller units): 186 Miller units and 118 Miller units and 96 Miller units
rpoH-lacZ expression; ΔmtrR, 6.25 µM hormone
  Miller units: 180 Miller units
rpoH-lacZ expression; ΔmtrR, 12.5 µM hormone
  Miller units: 168 Miller units
rpoH-lacZ expression; ΔmtrR, 25 µM hormone
  Miller units: 170 Miller units
rpoH-lacZ expression; ΔmtrR, 50 µM hormone
  Miller units: 138 Miller units
rpoH-lacZ expression; strain WT (FA19/pLES94-rpoH), hormone 6.25 µM
  β-galactosidase activity, rpoH-lacZ, Mean: 66 Miller units
rpoH-lacZ expression; strain WT (FA19/pLES94-rpoH), hormone 12.5 µM
  β-galactosidase activity, rpoH-lacZ, Mean: 79 Miller units
rpoH-lacZ expression; strain WT (FA19/pLES94-rpoH), hormone 50 µM
  β-galactosidase activity, rpoH-lacZ, Mean: 136 Miller units
rpoH-lacZ expression; strain producing MtrR R176E
  activation of rpoH: almost no activation
rpoH-lacZ expression; strain ΔmtrR (FA19 ∆mtrR/pLES94-rpoH), hormone 6.25 µM
  β-galactosidase activity, rpoH-lacZ, Mean: 203 Miller units
rpoH-lacZ expression; strain ΔmtrR (FA19 ∆mtrR/pLES94-rpoH), hormone 12.5 µM
  β-galactosidase activity, rpoH-lacZ, Mean: 175 Miller units
rpoH-lacZ expression; strain ΔmtrR (FA19 ∆mtrR/pLES94-rpoH), hormone 25 µM
  β-galactosidase activity, rpoH-lacZ, Mean: 175 Miller units
rpoH-lacZ expression; strain ΔmtrR (FA19 ∆mtrR/pLES94-rpoH), hormone 50 µM
  β-galactosidase activity, rpoH-lacZ, Mean: 134 Miller units
rpoH-lacZ expression; strain ΔmtrR + mtrR D171A (pGCC3-mtrR D171A), hormone 6.25 µM
  β-galactosidase activity, rpoH-lacZ, Mean: 87 Miller units
rpoH-lacZ expression; strain ΔmtrR + mtrR D171A (pGCC3-mtrR D171A), hormone 12.5 µM
  β-galactosidase activity, rpoH-lacZ, Mean: 78 Miller units
rpoH-lacZ expression; strain ΔmtrR + mtrR D171A (pGCC3-mtrR D171A), hormone 25 µM
  β-galactosidase activity, rpoH-lacZ, Mean: 86 Miller units
rpoH-lacZ expression; strain ΔmtrR + mtrR D171A (pGCC3-mtrR D171A), hormone 50 µM
  β-galactosidase activity, rpoH-lacZ, Mean: 67 Miller units
rpoH-lacZ expression; strain ΔmtrR + mtrR WT (pGCC3-mtrR), hormone 6.25 µM
  β-galactosidase activity, rpoH-lacZ, Mean: 35 Miller units
rpoH-lacZ expression; strain ΔmtrR + mtrR WT (pGCC3-mtrR), hormone 12.5 µM
  β-galactosidase activity, rpoH-lacZ, Mean: 35 Miller units
rpoH-lacZ expression; strain ΔmtrR + mtrR WT (pGCC3-mtrR), hormone 25 µM
  β-galactosidase activity, rpoH-lacZ, Mean: 55 Miller units
rpoH-lacZ expression; strain ΔmtrR + mtrR WT (pGCC3-mtrR), hormone 50 µM
  β-galactosidase activity, rpoH-lacZ, Mean: 60 Miller units
MtrR D171A
  Kd: 8.36 ± 2.5 µM
